Test [1] addresses T1, Cholesteryl ester transfer protein (Homo sapiens) (UniProt P11597).
T1 sequence (whole entry): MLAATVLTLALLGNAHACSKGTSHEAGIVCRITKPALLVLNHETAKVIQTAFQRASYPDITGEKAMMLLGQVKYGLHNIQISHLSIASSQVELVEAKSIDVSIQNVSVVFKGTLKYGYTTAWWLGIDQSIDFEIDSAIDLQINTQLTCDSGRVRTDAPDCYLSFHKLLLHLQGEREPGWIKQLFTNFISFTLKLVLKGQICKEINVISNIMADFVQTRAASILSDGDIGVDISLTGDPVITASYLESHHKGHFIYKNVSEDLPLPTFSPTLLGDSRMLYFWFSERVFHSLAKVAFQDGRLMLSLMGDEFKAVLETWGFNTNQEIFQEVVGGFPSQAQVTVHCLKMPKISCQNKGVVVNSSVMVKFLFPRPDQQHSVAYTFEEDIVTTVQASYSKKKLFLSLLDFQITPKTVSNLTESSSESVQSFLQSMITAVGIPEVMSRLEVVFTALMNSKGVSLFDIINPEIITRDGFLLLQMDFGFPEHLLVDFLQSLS
The test is described as follows: Inhibition of human CETP at 10 uM relative to control.

For test [2], the target named is T2, Cholesteryl ester transfer protein (Homo sapiens, UniProt P11597).
T2 sequence (P11597 whole entry): T1 sequence (whole entry)
Briefly: Inhibition of human CETP.

Structures are written as SMILES. pIC50: −log10 of the molar value.

In general, inhibition refers to the change of the read-out against control, counted positive when it falls. Low values mean a weak effect, high ones a strong effect. Regarding `C[C@H]1[C@H](C)CC[C@]2(C(=O)O)CC[C@]3(C)C(=CC[C@@H]4[C@@]5(C)CC[C@H](OC(=O)c6ccc(C(=O)O)cc6)C(C)(C)[C@@H]5CC[C@]43C)[C@H]12`, the inhibition in test [1] is 24.5%.

`C[C@H]1[C@H](C)CC[C@]2(C(=O)O)CC[C@]3(C)C(=CC[C@@H]4[C@@]5(C)CC[C@H](OC(=O)CCCCCC(=O)O)C(C)(C)[C@@H]5CC[C@]43C)[C@H]12` yielded an inhibition in test [1] of 11.1%.

A word on the pIC50: it is the IC50 on a negative log10 scale, so that one unit is a factor of ten. `C[C@H]1[C@H](C)CC[C@]2(C(=O)O)CC[C@]3(C)C(=CC[C@@H]4[C@@]5(C)CC[C@H](OC(=O)c6cccc(C(=O)O)c6)C(C)(C)[C@@H]5CC[C@]43C)[C@H]12` gave a negative logarithm of the IC50 (pIC50) in test [2] of 5.48. In test [1], this compound yielded an inhibition of 61.8%.

Take `C[C@H]1[C@H](C)CC[C@]2(C(=O)O)CC[C@]3(C)C(=CC[C@@H]4[C@@]5(C)CC[C@H](OC(=O)C6C(C(=O)O)C6(C)C)C(C)(C)[C@@H]5CC[C@]43C)[C@H]12` (some centres not stated): in test [1], the inhibition was determined as 9%.

The compound `C[C@H]1[C@H](C)CC[C@]2(C(=O)O)CC[C@]3(C)C(=CC[C@@H]4[C@@]5(C)CC[C@H](OC(=O)CCCC(=O)O)C(C)(C)[C@@H]5CC[C@]43C)[C@H]12` gave a pIC50 in test [2] of 5.49. Further, the inhibition in test [1] turned out to be 55.1%.

`C[C@H]1[C@H](C)CC[C@]2(C(=O)O)CC[C@]3(C)C(=CC[C@@H]4[C@@]5(C)CC[C@H](OC(=O)CC6(CC(=O)O)CCCCC6)C(C)(C)[C@@H]5CC[C@]43C)[C@H]12` had an inhibition in test [1] of 1.5%.

For `C[C@H]1[C@H](C)CC[C@]2(C(=O)O)CC[C@]3(C)C(=CC[C@@H]4[C@@]5(C)CC[C@H](OC(=O)C6CC6C(=O)O)C(C)(C)[C@@H]5CC[C@]43C)[C@H]12` (some centres not stated), the negative-log IC50 (pIC50) in test [2] was 5.62. Also, the inhibition in test [1] was determined as 53.2%.

Regarding `C[C@H]1[C@H](C)CC[C@]2(C(=O)O)CC[C@]3(C)C(=CC[C@@H]4[C@@]5(C)CC[C@H](O)C(C)(C)[C@@H]5CC[C@]43C)[C@H]12` [URSOLIC ACID], the pIC50 in test [2] is under 4.30.

In turn, `C[C@H]1[C@H](C)CC[C@]2(C(=O)O)CC[C@]3(C)C(=CC[C@@H]4[C@@]5(C)CC[C@H](OC(=O)CC6(CC(=O)O)CCCC6)C(C)(C)[C@@H]5CC[C@]43C)[C@H]12` displayed an inhibition in test [1] of 0%.

On to `C[C@H]1[C@H](C)CC[C@]2(C(=O)O)CC[C@]3(C)C(=CC[C@@H]4[C@@]5(C)CC[C@H](OC(=O)CCC(=O)O)C(C)(C)[C@@H]5CC[C@]43C)[C@H]12`, for which, in test [2], the pIC50 was 4.96. In test [1], this compound showed an inhibition of 42.8%.

On to `C[C@H]1[C@H](C)CC[C@]2(C(=O)O)CC[C@]3(C)C(=CC[C@@H]4[C@@]5(C)CC[C@H](OC(=O)c6ccccc6C(=O)O)C(C)(C)[C@@H]5CC[C@]43C)[C@H]12`, for which, in test [2], the pIC50 was 5.26. This compound had an inhibition in test [1] of 47.9%.

In test [1], `C[C@H]1[C@H](C)CC[C@]2(C(=O)O)CC[C@]3(C)C(=CC[C@@H]4[C@@]5(C)CC[C@H](OC(=O)CCCCC(=O)O)C(C)(C)[C@@H]5CC[C@]43C)[C@H]12` came in with an inhibition of 23.3%.

In turn, `CC(CC(=O)O)CC(=O)O[C@H]1CC[C@]2(C)[C@H]3CC=C4[C@@H]5[C@@H](C)[C@H](C)CC[C@]5(C(=O)O)CC[C@@]4(C)[C@]3(C)CC[C@H]2C1(C)C` (some centres not stated) had an inhibition in test [1] of 1.1%.

`C[C@H]1[C@H](C)CC[C@]2(C(=O)O)CC[C@]3(C)C(=CC[C@@H]4[C@@]5(C)CC[C@H](OC(=O)c6cccnc6)C(C)(C)[C@@H]5CC[C@]43C)[C@H]12` displayed an inhibition in test [1] of 11.2%.

Consider `C[C@H]1[C@H](C)CC[C@]2(C(=O)O)CC[C@]3(C)C(=CC[C@@H]4[C@@]5(C)CC[C@H](OC(=O)CC(C)(C)CC(=O)O)C(C)(C)[C@@H]5CC[C@]43C)[C@H]12`, for which the inhibition in test [1] was found to be 0%.

For `C[C@H]1[C@H](C)CC[C@]2(C(=O)O)CC[C@]3(C)C(=CC[C@@H]4[C@@]5(C)CC[C@H](OC(=O)c6ccccc6)C(C)(C)[C@@H]5CC[C@]43C)[C@H]12`, the inhibition in test [1] was found to be 22.7%.

Take `COc1cc(F)c(C(C)C)cc1-c1ccc(C(F)(F)F)cc1CN1C(=O)O[C@H](c2cc(C(F)(F)F)cc(C(F)(F)F)c2)[C@@H]1C`: the inhibition in test [1] came out at 88.4%.

Source of the values: ChEMBL document CHEMBL4602625, “Synthesis, biological evaluation and SAR studies of ursolic acid 3β-ester derivatives as novel CETP inhibitors” (Bioorg Med Chem Lett, 2020).
